Experimental findings from PubChem BioAssay AID1259407 (Chemical Carcinogenesis Research Information System (CCRIS), 2018) are described below.

The test system of this data set is CCRIS mutagenicity, Ames/micronucleus/aberration tests. Briefly: CCRIS mutagenicity studies.
The mark [1] stands for this setting: Test System: AMES SALMONELLA TYPHIMURIUM, Strain/Indicator: TA98, Metabolic Activation: NONE, Method: PREINCUBATION
The mark [2] stands for this setting: Test System: AMES SALMONELLA TYPHIMURIUM, Strain/Indicator: TA98, Metabolic Activation: NONE, Method: STANDARD PLATE.
Where [3] appears, read: Test System: AMES SALMONELLA TYPHIMURIUM, Strain/Indicator: TA98, Metabolic Activation: RAT, LIVER, S-9, AROCLOR 1254, Method: STANDARD PLATE.
[4] abbreviates: Test System: AMES SALMONELLA TYPHIMURIUM, Strain/Indicator: TA100, Metabolic Activation: NONE, Method: PREINCUBATION
The mark [5] stands for this setting: Test System: AMES SALMONELLA TYPHIMURIUM, Strain/Indicator: TA100, Metabolic Activation: NONE, Method: STANDARD PLATE.
Where [6] appears, read: Test System: AMES SALMONELLA TYPHIMURIUM, Strain/Indicator: TA100, Metabolic Activation: RAT, LIVER, S-9, AROCLOR 1254, Method: STANDARD PLATE.
The mark [7] stands for this setting: Test System: AMES SALMONELLA TYPHIMURIUM, Strain/Indicator: TA1535, Metabolic Activation: NONE, Method: STANDARD PLATE.
Setting [8] is: Test System: AMES SALMONELLA TYPHIMURIUM, Strain/Indicator: TA1535, Metabolic Activation: RAT, LIVER, S-9, AROCLOR 1254, Method: STANDARD PLATE.

Activity calls are given as the source filed them. How the calls were made is not given here.

For `C[C@]12CCC(=O)C=C1[C@@H]1C[C@@H]1[C@H]1[C@@H]3[C@@H]4C[C@@H]4[C@@]4(CCC(=O)O4)[C@@]3(C)CC[C@@H]12`, the mutagenic call was “inactive; negative” (End Point: IN VITRO CHROMOSOMAL ABERRATIONS, Test System: HUMAN PERIPHERAL LYMPHOCYTES, Metabolic Activation: NONE); “inactive; negative” (End Point: IN VITRO CHROMOSOMAL ABERRATIONS, Test System: HUMAN PERIPHERAL LYMPHOCYTES, Metabolic Activation: RAT, LIVER, S-9, AROCLOR 1254); “inactive; negative” (End Point: IN VIVO MICRONUCLEUS, Test System: BONE MARROW POLYCHROMATIC ERYTHROCYTES, Species: MOUSE, Strain/Sex: NMRI/MALE, FEMALE, Route: INTRAGASTRIC); “inactive; negative” under setting [1]; “inactive; negative” under setting [2]; “inactive; negative” (Test System: AMES SALMONELLA TYPHIMURIUM, Strain/Indicator: TA98, Metabolic Activation: RAT, LIVER, S-9, AROCLOR 1254, Method: PREINCUBATION). The mutagenic call is, setting by setting: under setting [3], “inactive; negative”; under setting [4], “inactive; negative”; under setting [5], “inactive; negative”; (Test System: AMES SALMONELLA TYPHIMURIUM, Strain/Indicator: TA100, Metabolic Activation: RAT, LIVER, S-9, AROCLOR 1254, Method: PREINCUBATION) “inactive; negative”; under setting [6], “inactive; negative”; (Test System: AMES SALMONELLA TYPHIMURIUM, Strain/Indicator: TA1535, Metabolic Activation: NONE, Method: PREINCUBATION) “inactive; negative”. Also, the mutagenic call under setting [7] was “inactive; negative”; the mutagenic call (Test System: AMES SALMONELLA TYPHIMURIUM, Strain/Indicator: TA1535, Metabolic Activation: RAT, LIVER, S-9, AROCLOR 1254, Method: PREINCUBATION) is “inactive; negative”; the mutagenic call under setting [8] was “inactive; negative”; the mutagenic call (Test System: AMES SALMONELLA TYPHIMURIUM, Strain/Indicator: TA1537, Metabolic Activation: NONE, Method: PREINCUBATION) is “inactive; negative”; the mutagenic call (Test System: AMES SALMONELLA TYPHIMURIUM, Strain/Indicator: TA1537, Metabolic Activation: NONE, Method: STANDARD PLATE) was “inactive; negative”; the mutagenic call (Test System: AMES SALMONELLA TYPHIMURIUM, Strain/Indicator: TA1537, Metabolic Activation: RAT, LIVER, S-9, AROCLOR 1254, Method: PREINCUBATION) is “inactive; negative”. Further, the mutagenic call runs as follows: (Test System: AMES SALMONELLA TYPHIMURIUM, Strain/Indicator: TA1537, Metabolic Activation: RAT, LIVER, S-9, AROCLOR 1254, Method: STANDARD PLATE) “inactive; negative”; (Test System: AMES SALMONELLA TYPHIMURIUM, Strain/Indicator: TA1538, Metabolic Activation: NONE, Method: PREINCUBATION) “inactive; negative”; (Test System: AMES SALMONELLA TYPHIMURIUM, Strain/Indicator: TA1538, Metabolic Activation: NONE, Method: STANDARD PLATE) “inactive; negative”; (Test System: AMES SALMONELLA TYPHIMURIUM, Strain/Indicator: TA1538, Metabolic Activation: RAT, LIVER, S-9, AROCLOR 1254, Method: PREINCUBATION) “inactive; negative”; (Test System: AMES SALMONELLA TYPHIMURIUM, Strain/Indicator: TA1538, Metabolic Activation: RAT, LIVER, S-9, AROCLOR 1254, Method: STANDARD PLATE) “inactive; negative”; (Test System: CHINESE HAMSTER V-79, Strain/Indicator: V-79 (HGPRT)/6-THIOGUANINE, Metabolic Activation: NONE) “inactive; negative”. Further, the mutagenic call (Test System: CHINESE HAMSTER V-79, Strain/Indicator: V-79 (HGPRT)/6-THIOGUANINE, Metabolic Activation: RAT, LIVER, S-9, AROCLOR 1254) is “inactive; negative”.

As for `CCN(CC)c1ccc(N=Nc2ccccc2)cc1`, the mutagenic call by setting is: (Test System: AMES SALMONELLA TYPHIMURIUM, Strain/Indicator: TA98, Metabolic Activation: RAT, LIVER, MICROSOMES, 4-DIETHYLAMINOAZOBENZENE, Method: PREINCUBATION) “inactive; negative”; (Test System: AMES SALMONELLA TYPHIMURIUM, Strain/Indicator: TA98, Metabolic Activation: RAT, LIVER, MICROSOMES, AROCLOR 1254, Method: PREINCUBATION) “inactive; negative”; (Test System: AMES SALMONELLA TYPHIMURIUM, Strain/Indicator: TA98, Metabolic Activation: RAT, LIVER, MICROSOMES, Method: PREINCUBATION) “inactive; negative”.

With `O=C1c2ccccc2-c2cccc3cccc1c23`, the mutagenic call under setting [2] is “inactive; negative”, the mutagenic call under setting [3] is “active; positive” and the mutagenic call under setting [6] is “active; positive”.

Consider `O=[N+]([O-])c1cccc2c1-c1cccc3cccc-2c13`, for which, under setting [2], the mutagenic call is “active; positive”.

As to `COc1cc([N+](=O)[O-])ccc1NC(C)=O`, the mutagenic call reads like this: under setting [2], “active; positive”; under setting [3], “inactive; negative”.

On to `COC(=O)/C=C/c1ccc([N+](=O)[O-])o1`, for which the mutagenic call under setting [1] was “active; positive”.

Consider `c1cncc(-c2cccnc2)c1`, for which the mutagenic call runs as follows: (Test System: AMES SALMONELLA TYPHIMURIUM, Strain/Indicator: TA97, Metabolic Activation: RAT, LIVER, S-9, PHENOBARBITAL, Method: STANDARD PLATE) “inactive; negative”; (Test System: AMES SALMONELLA TYPHIMURIUM, Strain/Indicator: TA98, Metabolic Activation: RAT, LIVER, S-9, PHENOBARBITAL, Method: STANDARD PLATE) “inactive; negative”; (Test System: AMES SALMONELLA TYPHIMURIUM, Strain/Indicator: TA100, Metabolic Activation: RAT, LIVER, S-9, PHENOBARBITAL, Method: STANDARD PLATE) “active; positive”; (Test System: AMES SALMONELLA TYPHIMURIUM, Strain/Indicator: TA1535, Metabolic Activation: RAT, LIVER, S-9, PHENOBARBITAL, Method: STANDARD PLATE) “inactive; negative”; (Test System: AMES SALMONELLA TYPHIMURIUM, Strain/Indicator: TA1537, Metabolic Activation: RAT, LIVER, S-9, PHENOBARBITAL, Method: STANDARD PLATE) “inactive; negative”; (Test System: AMES SALMONELLA TYPHIMURIUM, Strain/Indicator: TA1538, Metabolic Activation: RAT, LIVER, S-9, PHENOBARBITAL, Method: STANDARD PLATE) “active; positive”.

As for `CC1OC1c1ccc(C#N)cc1` (configuration not stated), the mutagenic call under setting [4] is “active; positive”.

Regarding `Cc1ccc2nc3n(C)c4ccc(C)cc4c(C)c-3c2c1`, the mutagenic call under setting [3] is “active; positive”.

Regarding `c1ccc2c3c4c(cc5ccccc5c4cc2c1)C1=C3CCCC1`, the mutagenic call (Test System: AMES SALMONELLA TYPHIMURIUM, Strain/Indicator: TA100, Metabolic Activation: RAT, LIVER, S-9, 3-METHYLCHOLANTHRENE, Method: STANDARD PLATE) was “active; positive”.

In the case of `CC1=CC=C(C(C)C)CC1`, the mutagenic call by setting is: (Test System: AMES SALMONELLA TYPHIMURIUM, Strain/Indicator: TA97A, Metabolic Activation: NONE, Method: STANDARD PLATE) “inactive; negative”; (Test System: AMES SALMONELLA TYPHIMURIUM, Strain/Indicator: TA97A, Metabolic Activation: RAT, LIVER, S-9, AROCLOR 1254, Method: STANDARD PLATE) “inactive; negative”; under setting [2], “inactive; negative”; under setting [3], “inactive; negative”; under setting [5], “inactive; negative”; under setting [6], “inactive; negative”. For the same molecule, the mutagenic call was “inactive; negative” under setting [7] and “inactive; negative” under setting [8].
